Measurements as given in patent US9675624B2, “Combination of levocabastine and fluticasone furoate for the treatment of inflammatory and/or allergic conditions” (Glaxo Group Limited, priority 2012, dated 2017).

Experiment: Competitive ripening experiments on levocabastine free base forms
Type: physicochemical
Excerpt: It has been observed that the levocabastine HCl salt converts during the preparation of formulations of the invention (e.g. as described in Examples 1 and 2) to levocabastine free base. Levocabastine free base Forms 1 and 2 were observed during the form screen of the HCl salt and during pH solubility studies.

C[C@@H]1CN(C2CCC(C#N)(c3ccc(F)cc3)CC2)CC[C@]1(C(=O)O)c1ccccc1 (stereo partly drawn) [levocabastine Form 1, (3S,4R)-1-[4-cyano-4-(4-fluorophenyl)cyclohexyl]-3-methyl-4-phenylpiperidine-4-carboxylic acid]
relative stability of polymorphic forms of the free base: most stable form
